{"source": "ChEMBL document CHEMBL6121021", "about": "“Design and Synthesis of Topoisomerases-Histone Deacetylase Dual Targeted Quinoline-Bridged Hydroxamates as Anticancer Agents” (J Med Chem, 2025)", "key": {"[1]": {"assay": "Antiproliferative activity against human NCI-H1975 cells harboring EGFR T790M mutant incubated for 48 hrs by MTT assay", "type": "functional, cell-based", "details": "NCI-H1975, 48 h"}, "[2]": {"biological_target": "Histone deacetylase 2 (Homo sapiens, UniProt Q92769)", "sequence (Q92769 whole entry)": "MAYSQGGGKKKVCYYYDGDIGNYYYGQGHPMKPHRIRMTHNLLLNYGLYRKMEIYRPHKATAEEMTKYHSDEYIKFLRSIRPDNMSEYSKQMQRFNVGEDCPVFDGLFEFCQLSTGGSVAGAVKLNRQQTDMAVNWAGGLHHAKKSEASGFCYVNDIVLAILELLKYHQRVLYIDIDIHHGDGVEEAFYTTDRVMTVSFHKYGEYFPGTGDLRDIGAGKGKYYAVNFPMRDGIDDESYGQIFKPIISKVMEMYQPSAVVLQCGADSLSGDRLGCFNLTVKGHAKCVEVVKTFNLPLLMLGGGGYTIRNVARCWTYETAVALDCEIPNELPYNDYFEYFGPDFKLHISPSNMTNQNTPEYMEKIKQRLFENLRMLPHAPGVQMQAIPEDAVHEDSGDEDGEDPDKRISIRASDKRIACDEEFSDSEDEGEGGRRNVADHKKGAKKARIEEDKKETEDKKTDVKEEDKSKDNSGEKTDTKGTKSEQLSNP"}, "[3]": {"system": "A549", "assay": "In vivo anti-metastatic activity in human A549 cells xenografted in athymic nude Crl:NU-Foxn1nu mouse assessed as decrease in ZEB1 mRNA level at 30 mg/kg, po administered twice a week for 1 month by qPCR analysis", "type": "functional, organism-based", "details": "time 1.0 months"}, "[4]": {"assay": "Metabolic stability in human hepatocytes assessed as hepatic clearance at 2 uM measured upto 120 min by LC-MS/MS analysis", "type": "ADME, cell-based, Hepatocyte"}, "[5]": {"biological_target": "Histone deacetylase 11 (Homo sapiens, UniProt Q96DB2)", "sequence (Q96DB2 whole entry)": "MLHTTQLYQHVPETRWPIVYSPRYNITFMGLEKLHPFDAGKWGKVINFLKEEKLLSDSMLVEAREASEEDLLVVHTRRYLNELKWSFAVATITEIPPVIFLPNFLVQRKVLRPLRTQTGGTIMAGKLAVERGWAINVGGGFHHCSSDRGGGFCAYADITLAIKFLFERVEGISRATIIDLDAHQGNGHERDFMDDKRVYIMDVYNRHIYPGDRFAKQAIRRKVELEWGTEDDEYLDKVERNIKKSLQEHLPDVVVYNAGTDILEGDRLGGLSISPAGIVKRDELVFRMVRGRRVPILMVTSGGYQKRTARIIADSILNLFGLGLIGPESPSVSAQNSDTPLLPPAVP", "assay": "Inhibition of recombinant human HDAC11 by fluorogenic assay"}, "[6]": {"assay": "Drug metabolism in human hepatocytes assessed as demethylation M6 metabolite formation at 10 uM by LC-MS/MS analysis", "type": "ADME, cell-based, Hepatocyte"}, "[7]": {"biological_target": "Histone deacetylase 4 (Homo sapiens, UniProt P56524)", "sequence (P56524 whole entry)": "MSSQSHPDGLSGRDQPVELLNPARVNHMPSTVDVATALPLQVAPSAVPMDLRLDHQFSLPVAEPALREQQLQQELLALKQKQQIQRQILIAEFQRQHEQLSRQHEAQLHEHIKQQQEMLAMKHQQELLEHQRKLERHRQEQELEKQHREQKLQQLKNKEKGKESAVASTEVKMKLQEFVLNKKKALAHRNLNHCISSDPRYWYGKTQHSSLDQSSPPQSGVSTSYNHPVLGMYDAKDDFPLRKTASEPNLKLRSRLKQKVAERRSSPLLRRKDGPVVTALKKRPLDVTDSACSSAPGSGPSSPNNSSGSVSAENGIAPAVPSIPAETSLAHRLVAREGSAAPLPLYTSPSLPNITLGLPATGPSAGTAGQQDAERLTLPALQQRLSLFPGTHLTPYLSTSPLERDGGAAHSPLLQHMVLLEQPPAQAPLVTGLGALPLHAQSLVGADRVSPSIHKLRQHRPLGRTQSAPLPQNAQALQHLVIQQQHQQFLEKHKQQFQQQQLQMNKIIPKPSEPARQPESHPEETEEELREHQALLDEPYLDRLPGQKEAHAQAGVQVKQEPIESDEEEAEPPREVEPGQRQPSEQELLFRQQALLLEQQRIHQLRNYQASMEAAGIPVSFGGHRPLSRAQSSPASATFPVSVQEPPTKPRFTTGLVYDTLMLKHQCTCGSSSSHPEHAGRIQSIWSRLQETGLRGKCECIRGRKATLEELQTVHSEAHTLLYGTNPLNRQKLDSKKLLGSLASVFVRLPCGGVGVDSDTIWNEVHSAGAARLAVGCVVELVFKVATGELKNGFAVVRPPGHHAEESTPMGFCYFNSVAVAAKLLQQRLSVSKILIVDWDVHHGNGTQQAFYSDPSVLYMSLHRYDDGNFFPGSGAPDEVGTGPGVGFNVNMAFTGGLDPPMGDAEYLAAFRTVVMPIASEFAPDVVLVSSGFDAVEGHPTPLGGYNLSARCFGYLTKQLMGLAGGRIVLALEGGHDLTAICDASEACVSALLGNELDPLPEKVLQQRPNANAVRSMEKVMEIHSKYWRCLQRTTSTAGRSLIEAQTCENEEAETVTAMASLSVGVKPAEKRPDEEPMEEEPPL", "assay": "Inhibition of His/GST-tagged recombinant human HDAC4 by fluorogenic assay"}, "[8]": {"assay": "Drug metabolism in human hepatocytes assessed as beta-oxidation M2 metabolite formation at 10 uM by LC-MS/MS analysis", "type": "ADME, cell-based, Hepatocyte"}, "[9]": {"system": "MDA-MB-231", "assay": "Anti-cancer activity against human MDA-MB-231 cells assessed as decrease in p53 level at 5 to 10 uM incubated for 48 hrs by immunoblot analysis", "type": "functional, cell-based", "details": "dose 5-10 µM"}, "[10]": {"biological_target": "Cytochrome P450 1A2 (Homo sapiens, UniProt P05177)", "sequence (P05177 whole entry)": "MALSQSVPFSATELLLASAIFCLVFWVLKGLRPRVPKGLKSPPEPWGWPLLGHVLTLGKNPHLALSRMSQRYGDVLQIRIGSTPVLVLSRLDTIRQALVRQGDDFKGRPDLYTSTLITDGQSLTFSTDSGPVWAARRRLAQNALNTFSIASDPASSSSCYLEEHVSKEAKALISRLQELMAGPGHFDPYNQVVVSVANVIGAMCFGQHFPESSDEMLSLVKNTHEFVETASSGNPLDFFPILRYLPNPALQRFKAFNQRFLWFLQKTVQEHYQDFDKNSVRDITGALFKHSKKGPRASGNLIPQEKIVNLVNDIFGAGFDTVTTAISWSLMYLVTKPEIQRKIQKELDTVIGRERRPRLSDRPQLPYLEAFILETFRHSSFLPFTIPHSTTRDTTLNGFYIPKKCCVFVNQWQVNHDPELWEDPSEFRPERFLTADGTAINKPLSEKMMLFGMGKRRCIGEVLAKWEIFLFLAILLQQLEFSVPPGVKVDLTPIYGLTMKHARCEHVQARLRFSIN", "assay": "Inhibition of CYP1A2 in human liver microsomes preincubated for 10 mins followed by NADPH addition measured after 5 mins by LC-MS/MS analysis", "type": "ADME, Microsome"}, "[11]": {"assay": "Drug metabolism in human hepatocytes assessed as O-dealkylation M5 metabolite formation at 10 uM by LC-MS/MS analysis", "type": "ADME, cell-based, Hepatocyte"}, "[12]": {"system": "MCF7", "assay": "cells", "type": "functional, cell-based", "details": "Homo sapiens, MCF7, 48 h"}, "[13]": {"system": "MDA-MB-231", "assay": "Anti-cancer activity against human MDA-MB-231 cells assessed as decrease in PCNA level incubated for 48 hrs by immunoblot analysis", "type": "functional, cell-based", "details": "dose 1-10 µM"}, "[14]": {"biological_target": "Histone deacetylase 3/Nuclear receptor corepressor 2 (HDAC3/NCoR2) (Homo sapiens, UniProt O15379)", "assay": "Inhibition of His/GST-tagged recombinant human HDAC3/NcoR2 by fluorogenic assay", "type": "protein-complex assay"}, "[15]": {"system": "MDA-MB-231", "assay": "Anti-cancer activity against human MDA-MB-231 cells assessed as decrease in CDK-4 level at 1 to 10 uM incubated for 48 hrs by immunoblot analysis", "type": "functional, cell-based", "details": "dose 1-10 µM"}, "[16]": {"system": "MDA-MB-231", "assay": "Anti-cancer activity against human MDA-MB-231 cells assessed as increase in let7a mRNA level by qPCR analysis", "type": "functional, cell-based"}, "[17]": {"system": "H9c2", "assay": "Antiproliferative activity against rat H9c2 cells at 10 uM by JC-1 staining based analysis", "type": "toxicity, cell-based", "details": "h9c2, 10 µM"}, "[18]": {"system": "A549", "assay": "Anti-cancer activity against human A549 3D cell culture model assessed as inhibition of 3D culture initiation at sub- IC50 incubated for 21 days with replacement of medium containing compound on every seventh day", "type": "functional, cell-based", "details": "time 21.0 day"}, "[19]": {"system": "A549", "assay": "Antitumor activity against human A549 cells xenografted in athymic nude Crl:NU-Foxn1nu mouse assessed as decrease in tumor size at 15 to 30 mg/kg, po administered twice a week for 1 month", "type": "functional, organism-based", "details": "dose 15-30 mg/kg, time 1.0 months"}, "[20]": {"system": "A549", "assay": "Induction of cell cycle arrest in human A549 cells assessed as accumulation at G2/M phase at 500 nM by PI staining based flow cytometry", "type": "functional"}, "[21]": {"system": "A549", "assay": "In vivo induction of apoptosis in human A549 cells xenografted in athymic nude Crl:NU-Foxn1nu mouse assessed as increase in Bax level at 30 mg/kg, po administered twice a week for 1 month by immunoblot analysis", "type": "functional, organism-based", "details": "time 1.0 months"}, "[22]": {"system": "MDA-MB-231", "assay": "Anti-cancer activity against human MDA-MB-231 cells assessed as decrease in p53 level at 1 to 3 uM incubated for 48 hrs by immunoblot analysis", "type": "functional, cell-based", "details": "dose 1-3 µM"}, "[23]": {"system": "NCI-H1299", "assay": "cells", "type": "functional, cell-based", "details": "Homo sapiens, NCI-H1299, 48 h"}, "[24]": {"system": "MDA-MB-231", "assay": "Anti-cancer activity against human MDA-MB-231 cells assessed as decrease in p21 level at 1 to 10 uM incubated for 48 hrs by immunoblot analysis", "type": "functional, cell-based", "details": "dose 1-10 µM"}, "[25]": {"assay": "Drug metabolism in human hepatocytes assessed as glucuronide conjugated M8 metabolite formation at 10 uM by LC-MS/MS analysis", "type": "ADME, cell-based, Hepatocyte"}, "[26]": {"system": "A549", "assay": "Induction of ROS generation in human A549 cells incubated for 48 hrs by Cell Rox red staining based flow cytometry", "type": "functional"}, "[27]": {"system": "A549", "assay": "In vivo inhibition of epithelial-mesenchymal transition in human A549 cells xenografted in athymic nude Crl:NU-Foxn1nu mouse assessed as decrease in Twist mRNA level at 30 mg/kg, po administered twice a week for 1 month by qPCR analysis", "type": "functional, organism-based", "details": "time 1.0 months"}, "[28]": {"system": "HEK293", "assay": "Antiproliferative activity against HEK293 cells at 10 uM incubated for 48 hrs by MTT assay", "type": "toxicity, cell-based", "details": "human, hek293, 48 h"}, "[29]": {"biological_target": "Histone deacetylase 5 (Homo sapiens, UniProt Q9UQL6)", "sequence (Q9UQL6 whole entry, the tested form may be a part)": "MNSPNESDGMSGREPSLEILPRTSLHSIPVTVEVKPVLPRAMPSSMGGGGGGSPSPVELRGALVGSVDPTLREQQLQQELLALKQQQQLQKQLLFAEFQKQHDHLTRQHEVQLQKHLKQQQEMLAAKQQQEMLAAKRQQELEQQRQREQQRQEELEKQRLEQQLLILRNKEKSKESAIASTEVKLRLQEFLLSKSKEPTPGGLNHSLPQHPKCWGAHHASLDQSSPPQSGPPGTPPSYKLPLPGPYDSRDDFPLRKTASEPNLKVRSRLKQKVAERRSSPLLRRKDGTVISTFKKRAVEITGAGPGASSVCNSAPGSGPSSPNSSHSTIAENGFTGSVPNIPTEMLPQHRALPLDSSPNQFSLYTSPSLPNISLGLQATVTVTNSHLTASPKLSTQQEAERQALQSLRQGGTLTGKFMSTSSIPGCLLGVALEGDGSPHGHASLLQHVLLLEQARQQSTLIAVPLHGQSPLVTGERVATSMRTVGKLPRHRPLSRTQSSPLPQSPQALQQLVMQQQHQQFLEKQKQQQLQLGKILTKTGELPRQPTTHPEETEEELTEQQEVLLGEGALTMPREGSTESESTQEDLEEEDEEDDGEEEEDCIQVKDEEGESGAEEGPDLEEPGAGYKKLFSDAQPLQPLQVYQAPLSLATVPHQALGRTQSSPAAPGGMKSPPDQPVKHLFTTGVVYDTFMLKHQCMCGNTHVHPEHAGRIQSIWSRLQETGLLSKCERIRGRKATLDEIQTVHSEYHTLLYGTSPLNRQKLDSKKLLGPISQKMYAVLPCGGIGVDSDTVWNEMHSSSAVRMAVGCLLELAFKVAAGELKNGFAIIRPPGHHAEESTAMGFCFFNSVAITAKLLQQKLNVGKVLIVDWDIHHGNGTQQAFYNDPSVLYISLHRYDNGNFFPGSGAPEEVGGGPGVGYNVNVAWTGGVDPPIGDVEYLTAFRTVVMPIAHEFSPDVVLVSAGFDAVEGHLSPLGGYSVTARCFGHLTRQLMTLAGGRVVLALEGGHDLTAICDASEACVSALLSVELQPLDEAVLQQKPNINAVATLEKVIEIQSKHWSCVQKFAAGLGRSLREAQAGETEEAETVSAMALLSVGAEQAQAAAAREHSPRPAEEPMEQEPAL", "assay": "Inhibition of His-tagged recombinant human HDAC5 catalytic domain by fluorogenic assay"}, "[30]": {"assay": "Metabolic stability in mouse hepatocytes assessed as hepatic clearance at 2 uM measured upto 120 min by LC-MS/MS analysis", "type": "ADME, cell-based, Hepatocyte"}, "[31]": {"system": "A549", "assay": "Antitumor activity against human A549 cells xenografted in athymic nude Crl:NU-Foxn1nu mouse assessed as tumor regression at 30 mg/kg, po administered twice a week for 1 month", "type": "functional, organism-based", "details": "time 1.0 months"}, "[32]": {"biological_target": "DNA topoisomerase 2-alpha (Homo sapiens, UniProt P11388)", "sequence (P11388 whole entry)": "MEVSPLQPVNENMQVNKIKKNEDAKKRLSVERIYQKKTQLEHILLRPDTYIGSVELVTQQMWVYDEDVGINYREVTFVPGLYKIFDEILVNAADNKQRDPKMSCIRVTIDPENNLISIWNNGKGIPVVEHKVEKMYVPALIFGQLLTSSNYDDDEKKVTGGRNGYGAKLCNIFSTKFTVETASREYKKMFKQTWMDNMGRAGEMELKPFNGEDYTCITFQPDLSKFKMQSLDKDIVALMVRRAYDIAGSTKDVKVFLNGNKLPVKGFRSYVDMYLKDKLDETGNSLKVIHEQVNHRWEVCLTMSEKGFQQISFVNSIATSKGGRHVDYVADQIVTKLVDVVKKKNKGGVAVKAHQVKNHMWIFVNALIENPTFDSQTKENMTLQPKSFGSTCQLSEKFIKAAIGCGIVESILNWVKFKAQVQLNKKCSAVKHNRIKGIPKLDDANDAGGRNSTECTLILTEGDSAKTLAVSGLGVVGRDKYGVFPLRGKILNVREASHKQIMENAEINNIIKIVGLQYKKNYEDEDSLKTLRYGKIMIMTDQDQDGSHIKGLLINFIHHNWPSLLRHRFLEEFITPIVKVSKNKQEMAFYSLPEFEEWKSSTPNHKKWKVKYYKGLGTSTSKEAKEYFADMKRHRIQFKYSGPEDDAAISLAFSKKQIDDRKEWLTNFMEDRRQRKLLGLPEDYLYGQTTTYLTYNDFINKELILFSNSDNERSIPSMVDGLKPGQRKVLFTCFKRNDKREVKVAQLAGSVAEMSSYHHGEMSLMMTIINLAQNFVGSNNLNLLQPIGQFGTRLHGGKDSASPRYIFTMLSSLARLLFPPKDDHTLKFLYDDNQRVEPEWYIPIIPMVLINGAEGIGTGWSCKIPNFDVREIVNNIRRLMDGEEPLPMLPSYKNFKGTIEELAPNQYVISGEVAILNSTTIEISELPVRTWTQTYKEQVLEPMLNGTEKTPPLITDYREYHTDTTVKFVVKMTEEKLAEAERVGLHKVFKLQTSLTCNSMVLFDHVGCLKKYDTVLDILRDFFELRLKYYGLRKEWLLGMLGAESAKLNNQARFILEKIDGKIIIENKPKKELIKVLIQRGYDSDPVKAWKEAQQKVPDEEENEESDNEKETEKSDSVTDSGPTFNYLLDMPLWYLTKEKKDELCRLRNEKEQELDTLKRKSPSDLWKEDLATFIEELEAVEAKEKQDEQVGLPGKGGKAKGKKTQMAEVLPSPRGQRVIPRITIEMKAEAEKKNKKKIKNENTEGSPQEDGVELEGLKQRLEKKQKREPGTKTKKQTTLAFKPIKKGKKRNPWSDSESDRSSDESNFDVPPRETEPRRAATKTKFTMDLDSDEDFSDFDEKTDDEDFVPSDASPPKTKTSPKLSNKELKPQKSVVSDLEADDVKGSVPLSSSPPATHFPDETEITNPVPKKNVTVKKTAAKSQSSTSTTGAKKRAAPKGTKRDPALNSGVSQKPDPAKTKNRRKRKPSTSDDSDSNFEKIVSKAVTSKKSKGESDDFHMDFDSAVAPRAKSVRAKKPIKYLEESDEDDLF", "assay": "Inhibition of human Topo II-alpha-mediated decatenation of kDNA incubated for 30 mins"}, "[33]": {"system": "A549", "assay": "Induction of cell cycle arrest in human A549 cells assessed as accumulation at G1 phase by PI staining based flow cytometry", "type": "functional"}, "[34]": {"system": "MDA-MB-231", "assay": "Anti-cancer activity against human MDA-MB-231 cells assessed as decrease in PCNA level at 10 uM incubated for 48 hrs by immunoblot analysis", "type": "functional, cell-based"}, "[35]": {"system": "MDA-MB-231", "assay": "Anti-cancer activity against human MDA-MB-231 cells assessed as decrease in p53 level at 1 to 5 uM incubated for 48 hrs by immunoblot analysis", "type": "functional, cell-based", "details": "dose 1-5 µM"}, "[36]": {"system": "MDA-MB-231", "assay": "Anti-cancer activity against human MDA-MB-231 cells assessed as decrease in p21 level at higher concentration incubated for 48 hrs by immunoblot analysis", "type": "functional, cell-based"}, "[37]": {"system": "A549", "assay": "Induction of apoptosis in human A549 cells by Annexin-V/PI staining based flow cytometry", "type": "functional, cell-based"}, "[38]": {"system": "MDA-MB-231", "assay": "Anti-cancer activity against human MDA-MB-231 cells assessed as decrease in p21 level at 1 uM incubated for 48 hrs by immunoblot analysis", "type": "functional, cell-based"}, "[39]": {"system": "A549", "assay": "Induction of cell cycle arrest in human A549 cells assessed as accumulation at G2/M phase by PI staining based flow cytometry", "type": "functional"}, "[40]": {"system": "MDA-MB-231", "assay": "Anti-cancer activity against human MDA-MB-231 cells assessed as decrease in p53 level at 10 uM incubated for 48 hrs by immunoblot analysis", "type": "functional, cell-based"}}, "note": "Active and inactive are the calls of the source. No cut-off for these calls is given here.", "data": [{"smiles": "COc1ccc(-c2ccc3cc(OCCCCCC(=O)NO)ccc3n2)cc1", "values": [{"measurement": "IC50", "setting": "[1]", "value": "< 250", "unit": "nM"}, {"measurement": "IC50", "setting": "[2]", "value": 77.4, "unit": "nM"}, {"measurement": "Activity", "setting": "[3]", "value": "Active"}, {"measurement": "CLhep predicted at 2 µM", "setting": "[4]", "value": 14, "unit": "mL/min/kg"}, {"measurement": "IC50", "setting": "[5]", "value": 58.1, "unit": "nM"}, {"measurement": "Drug metabolism", "setting": "[6]", "value": "metabolite_detected"}, {"measurement": "IC50", "setting": "[7]", "value": 99, "unit": "nM"}, {"measurement": "Drug metabolism", "setting": "[8]", "value": "metabolite_detected"}, {"measurement": "Activity", "setting": "[9]", "value": "inactive"}, {"measurement": "IC50", "setting": "[10]", "value": 4420, "unit": "nM"}, {"measurement": "Drug metabolism", "setting": "[11]", "value": "metabolite_detected"}, {"measurement": "IC50", "setting": "[12]", "value": 1980, "unit": "nM"}, {"measurement": "Activity", "setting": "[13]", "value": "Dose-dependent-effect"}, {"measurement": "IC50", "setting": "[14]", "value": 88.3, "unit": "nM"}, {"measurement": "Activity", "setting": "[15]", "value": "Active"}, {"measurement": "Activity", "setting": "[16]", "value": "Active"}, {"measurement": "Activity", "setting": "[17]", "value": "Non-toxic"}, {"measurement": "inhibition", "setting": "[18]", "value": "Active"}, {"measurement": "Activity", "setting": "[19]", "value": "Active"}, {"measurement": "Activity", "setting": "[20]", "value": "Active"}, {"measurement": "Activity", "setting": "[21]", "value": "Active"}, {"measurement": "Activity", "setting": "[22]", "value": "Active"}, {"measurement": "IC50", "setting": "[23]", "value": 1680, "unit": "nM"}, {"measurement": "Activity", "setting": "[24]", "value": "Active"}, {"measurement": "Drug metabolism", "setting": "[25]", "value": "metabolite_detected"}, {"measurement": "Activity", "setting": "[26]", "value": "Active"}, {"measurement": "inhibition", "setting": "[27]", "value": "Active"}, {"measurement": "Activity", "setting": "[28]", "value": "Non-toxic"}, {"measurement": "IC50", "setting": "[29]", "value": 88.2, "unit": "nM"}, {"measurement": "CLhep predicted at 2 µM", "setting": "[30]", "value": 65.9, "unit": "mL/min/kg"}, {"measurement": "Activity", "setting": "[31]", "value": "Active; Exerted Maximum Effect"}, {"measurement": "IC50", "setting": "[32]", "value": 67800, "unit": "nM"}]}, {"smiles": "COc1ccc(-c2ccc3ccc(OCCCCCCC(=O)NO)cc3n2)cc1I", "values": [{"measurement": "Activity", "setting": "[33]", "value": "Active"}, {"measurement": "Activity", "setting": "[34]", "value": "Active"}, {"measurement": "Activity", "setting": "[35]", "value": "Active"}, {"measurement": "Activity", "setting": "[36]", "value": "Active"}, {"measurement": "Activity", "setting": "[37]", "value": "Active"}, {"measurement": "IC50", "setting": "[12]", "value": 3020, "unit": "nM"}, {"measurement": "Activity", "setting": "[38]", "value": "inactive"}, {"measurement": "Activity", "setting": "[16]", "value": "Active"}, {"measurement": "inhibition", "setting": "[18]", "value": "Active"}, {"measurement": "IC50", "setting": "[23]", "value": 1630, "unit": "nM"}, {"measurement": "Activity", "setting": "[39]", "value": "Active"}, {"measurement": "Activity", "setting": "[26]", "value": "Active"}, {"measurement": "Activity", "setting": "[40]", "value": "inactive"}]}]}
